# Source: patent US7179825B2, “Retinoic acid mimetic anilides” (Janssen Pharmaceutica N.V., priority 1997, dated 2007)
# Tested on: Ovariectomized rats
# Assay: Vaginal keratinization test on ovariectomized rats (Example C.2)
# Assay type: in vivo
# Conditions: Rattus norvegicus, po, estradiol undecylate induced keratinization, per os once daily on days 1-3, active dose = 50% of rats show complete suppression, read-out: LAD (lowest active dose)
# Excerpt: The property to delay the metabolism of retinoic acid can be evidenced in various in vitro and in vivo experiments. A particular in vitro procedure is described in example C.1 and tests the inhibitory activity of the compounds of formula (I) on the metabolism of retinoic acid in human breast cancer cells. The compounds of the present invention were also effective in suppressing induced vaginal keratinization effects in ovariectomized rats as is described in example C.2.
# “Vaginal Keratinization Test on Ovariectomized Rats”
# Ovariectomized rats were injected subcutaneously with a sesame oil solution containing 100 μg of estradiol undecylate in a volume of 0.1 ml per 100 g body weight and control animals were injected with sesame oil. On day one, two and three, test animals were treated once daily with a per os dose of the test compound and control animals with the drug vehicle (PEG 200). One day after the last treatment, the animals were sacrificed and their vaginas were processed for histological evaluation according to the method described in J. Pharmacol. Exp. Ther. 261(2), 773–779 (1992). A dose at which 50% of the tested rats show complete suppression of the estradiol undecylate induced keratinization effects is defined as an active dose. Table 23 lists the lowest active dose (LAD in mg/kg) of the compounds of formula (I) which were tested.
row,Structure (SMILES),minimal effective dose
1,"CCC(CC)C(c1ccc(NC(=O)CN2CCN(C)CC2)cc1)n1cncn1 (racemic) [Compound 15, (±)-N-[4-[2-ethyl-1-(1H-1,2,4-triazol-1-yl)butyl]phenyl]-4-methyl-1-piperazineacetamide]",> 2.5 mg/kg
2,"CCC(CC)C(c1ccc(NC(=O)C2CCNCC2)cc1)n1ccnc1.Cl (racemic) [Compound 57, (±)-N-[4-[2-ethyl-1-(1H-imidazol-1-yl)butyl]-phenyl]4-piperidinecarboxamide monohydrochloride]",> 5 mg/kg
3,"CC(=O)Nc1ccc(C(C(C)C)n2ccnc2)cc1 (racemic) [Compound 521, (±)-N-[4-[1-(1H-imidazol-1-yl)-2-methylpropyl]phenyl]acetamide]",10 mg/kg
4,"CCC(CC)C(c1ccc(NC(=S)Nc2nc3ccccc3s2)cc1)n1ccnc1 (racemic) [Compound 705, (±)-N-(2-benzothiazolyl)-N′-[4-[1-(1H-imidazol-1-yl)-2-ethylbutyl]phenyl]-thiourea]",> 5 mg/kg

# Same assay, conditions: estradiol undecylate induced keratinization, per os once daily on days 1-3, active dose = 50% of rats show complete suppression
row,Structure (SMILES),LAD (lowest active dose)
1,CC(C(c1ccc(NC(=O)CCN2CCN(C)CC2)cc1)n1ccnc1)N(C)C (mixture of isomers) [Compound 354],>5.00 mg/kg
2,CCCCN(C)C(C)C(c1ccc(NC(C)=O)cc1)n1ccnc1 (mixture of isomers) [Compound 562],5.00 mg/kg
3,CCN(C)C(C)C(c1ccc(NC(C)=O)cc1)n1ccnc1 (mixture of isomers) [Compound 566],5.00 mg/kg
4,CCCN(C)C(C)C(c1ccc(NC(C)=O)cc1)n1ccnc1 (mixture of isomers) [Compound 570],>5.00 mg/kg
5,CC(=O)Nc1ccc(C(C(C)N(Cc2ccccc2)Cc2ccccc2)n2ccnc2)cc1 (mixture of isomers) [Compound 572],>5.00 mg/kg
6,CCC(CC)C(c1ccc(NC(=O)CN2CCCCC2)cc1)n1ccnc1 (racemic) [Compound 43],2.50 mg/kg
7,CCC(CC)C(c1ccc(NC(=O)CN2CCN(C)CC2)cc1)n1ccnc1 (racemic) [Compound 44],2.50 mg/kg
8,CCC(CC)C(c1ccc(NC(=O)C2CCN(C)CC2)cc1)n1ccnc1 (racemic) [Compound 59],>2.50 mg/kg
9,CCC(CC)C(c1ccc(NC(=O)Cc2ccc(OC)c(Cl)c2)cc1)n1cncn1 (racemic) [Compound 74],2.50 mg/kg
10,CCC(CC)C(c1ccc(NC(=O)Cc2c(OC)cccc2OC)cc1)n1ccnc1 (racemic) [Compound 114],2.50 mg/kg
11,CC(C)C(c1ccc(NC(=O)c2cc3ccccc3[nH]2)cc1)n1ccnc1 (racemic) [Compound 178],>10.00 mg/kg
12,CN(C)CC(c1ccc(NC(=O)Cc2ccc(Cl)cc2)cc1)n1ccnc1 (racemic) [Compound 375],>5.00 mg/kg
13,"COc1ccc(CC(=O)Nc2ccc(C(C(C)CO)n3ccnc3)cc2)cc1OC (racemic) [Compound 386, (±)-(A)-3,4-dimethoxy-N-[4-[1-(1H-imidazol-1-yl)-2-(hydroxymethyl)propyl]phenyl]benzeneacetamide]",>2.50 mg/kg
14,"COc1ccc(CC(=O)Nc2ccc(C(C(C)CO)n3ccnc3)cc2)cc1OC (racemic) [Compound 394, (±)-(B)-3,4-dimethoxy-N-[4-[1-(1H-imidazol-1-yl)-2-(hydroxymethyl)propyl]phenyl]-benzeneacetamide]",>2.50 mg/kg
15,COCC(c1ccc(NC(=O)Cc2ccc(OC)c(OC)c2)cc1)n1ccnc1 (racemic) [Compound 397],>2.50 mg/kg
16,"CNC(C)C(c1ccc(NC(=O)Cc2ccc(OC)c(OC)c2)cc1)n1ccnc1 (racemic) [Compound 400, (±)-(A)-3,4-dimethoxy-N-[4-[1-(1H-imidazol-1-yl)-2-(methylamino)propyl]phenyl]benzeneacetamide]",>2.50 mg/kg
17,"COc1ccc(CC(=O)Nc2ccc(C(C(C)O)n3ccnc3)cc2)cc1OC.O (racemic) [Compound 402, (±)-(B)-3,4-dimethoxy-N-[4-[2-hydroxy-1-(1H-imidazol-1-yl)propyl]phenyl]benzeneacetamide monohydrate]",>5.00 mg/kg
18,Cc1ccc(CC(=O)Nc2ccc(C(CN(C)C)n3ccnc3)cc2)cc1C (racemic) [Compound 433],>2.50 mg/kg
19,COc1ccc(C(=O)Nc2ccc(C(CN(C)C)n3ccnc3)cc2)cc1OC (racemic) [Compound 434],>2.50 mg/kg
20,CN(C)CC(c1ccc(NC(=O)N2CCN(C)CC2)cc1)n1ccnc1 (racemic) [Compound 436],>5.00 mg/kg
21,CC(=O)Nc1ccc(C(C=CC(C)C)n2ccnc2)cc1 (racemic) [Compound 532],>10.00 mg/kg
22,"CC(=O)Nc1ccc(C(C(C)N(C)C)n2cncn2)cc1 (racemic) [Compound 631, (±)-(B)-N-[4-[2-(dimethylamino)-1-(1H-1,2,4-triazol-1-yl)propyl]phenyl]acetamide]",>2.50 mg/kg
23,CCCC(C)C(c1ccc(NC(=O)Cc2ccc(Cl)cc2)cc1)n1cncn1 (racemic) [Compound 638],>2.50 mg/kg

row,Structure (SMILES),LAD (lowest active dose)
1,CCC(CC)C(c1ccc(NC(=S)Nc2nc3ccccc3s2)cc1)n1cncn1 (racemic) [Compound 706],5.00 mg/kg
2,O=C(Nc1ccc(C(c2cccc(C(F)(F)F)c2)n2ccnc2)cc1)Nc1ccccc1F (racemic) [Compound 714],2.50 mg/kg
3,COc1ccc(NC(=O)Nc2ccc(C(c3cccc(C(F)(F)F)c3)n3ccnc3)cc2)cc1 (racemic) [Compound 716],>2.50 mg/kg
4,COc1ccc(NC(=O)Nc2ccc(C(CN(C)C)n3ccnc3)cc2)cc1OC (racemic) [Compound 721],>2.50 mg/kg
5,CCCC(c1ccc(NC(=O)Cc2ccc(Cl)cc2)cc1)(C(CC)CC)n1ccnc1 (racemic) [Compound 766],>2.50 mg/kg
6,CCC(CC)C(CC)(c1ccc(NC(=O)Cc2ccc(Cl)cc2)cc1)n1ccnc1 (racemic) [Compound 768],>2.50 mg/kg
7,"CCC(CC)C(c1ccc(NC(=O)C(O)c2ccc(Cl)cc2)cc1)n1cncn1 (single isomer, unassigned) [Compound 20]",2.50 mg/kg
8,"CCOc1ccc(CCC(=O)Nc2ccc(C(C(CC)CC)n3ccnc3)cc2)cc1 (single isomer, unassigned) [Compound 62]",>5.00 mg/kg
9,"COc1ccc(CC(=O)Nc2ccc(C(C(C)N(C)C)n3cncn3)cc2)cc1OC (single isomer, unassigned) [Compound 278]",2.50 mg/kg
10,"COc1ccc(CC(=O)Nc2ccc(C(C(C)N(C)C)n3cncn3)cc2)cc1Cl (single isomer, unassigned) [Compound 279]",2.50 mg/kg
11,"Cc1ccc(CC(=O)Nc2ccc(C(C(C)N(C)C)n3cncn3)cc2)cc1C (single isomer, unassigned) [Compound 280]",>2.50 mg/kg
12,"COc1ccc(CC(=O)Nc2ccc(C(C(C)N(C)C)n3cncn3)cc2)cc1C (single isomer, unassigned) [Compound 281]",>2.50 mg/kg
13,"CC(C(c1ccc(NC(=O)Cc2ccc(Cl)cc2)cc1)n1cncn1)N(C)C (single isomer, unassigned) [Compound 283]",2.50 mg/kg
14,"CC(C(c1ccc(NC(=O)Cc2ccc(O)c(Cl)c2)cc1)n1cncn1)N(C)C (single isomer, unassigned) [Compound 284]",2.50 mg/kg
15,"CCOc1ccc(CC(=O)Nc2ccc(C(C(C)N(C)C)n3cncn3)cc2)cc1OCC (single isomer, unassigned) [Compound 285]",>2.50 mg/kg
16,"COc1ccc(CC(=O)Nc2ccc(C(C(C)N(C)C)n3cncn3)cc2)cc1C (single isomer, unassigned) [Compound 286]",>2.50 mg/kg
17,"COc1ccc(CC(=O)Nc2ccc(C(C(C)N(C)C)n3cncn3)cc2)cc1OC (single isomer, unassigned) [Compound 287]",>2.50 mg/kg
18,"COc1cc(CC(=O)Nc2ccc(C(C(C)N(C)C)n3cncn3)cc2)ccc1C (single isomer, unassigned) [Compound 294]",>2.50 mg/kg
19,"COc1cc(CC(=O)Nc2ccc(C(C(C)N(C)C)n3cncn3)cc2)ccc1C (single isomer, unassigned) [Compound 295]",>2.50 mg/kg
20,"CCOc1ccc(CC(=O)Nc2ccc(C(C(C)N(C)C)n3ccnc3)cc2)cc1OCC (single isomer, unassigned) [Compound 300]",>2.50 mg/kg
21,"COc1cc(CC(=O)Nc2ccc(C(C(C)N(C)C)n3ccnc3)cc2)cc(OC)c1OC (single isomer, unassigned) [Compound 302]",>2.50 mg/kg
22,"COc1ccc(CC(=O)Nc2ccc(C(C(C)N(C)C)n3ccnc3)cc2)cc1Cl (single isomer, unassigned) [Compound 304]",>2.50 mg/kg
23,"Cc1cc(CC(=O)Nc2ccc(C(C(C)N(C)C)n3ccnc3)cc2)cc(C)c1C (single isomer, unassigned) [Compound 308]",>2.50 mg/kg
